# Assay results published in patent US20080300298A1, “Honokiol Derivates For the Treatment of Proliferative Disorders” (priority 2005, published 2008).
# How the values were obtained:
# SVR angiosarcoma = assay: in vivo growth of SVR angiosarcoma; settings: nude mice
# Source text: FIG. 18 depicts the effect of honokiol on in vivo growth of SVR angiosarcoma in nude mice.
# FIG. 18 illustrates the effect of honokiol on in vivo growth of SVR angiosarcoma in nude mice.
# MM.1S cells = assay: TUNEL assay; assay type: cell-based, human; settings: 10 ug/ml, 48 h
# Experimental: (§1) Assessment of HNK-induced cytotoxicity against patient MM cells: […] A CD38^high fraction enriched for MM cells was determined in side and forward scatter panel in each case. The expression of CD138 on gated cells was also evaluated. After HNK-treatment for 48 h, cells were harvested and percentage of CD38^high cells with or without HNK-treatment was evaluated. Cell cycle analysis: MM cells cultured with HNK were harvested, fixed with 70% ethanol, and pretreated with 250 μg/mL of RNAse (Sigma, St Louis, Mo.). Cells were stained with propidium iodide (PI; 50 μg/mL; Sigma, St Louis, Mo.), and cell cycle profile was determined by using the program M software on an EPICS XL flow cytometer (Beckman Coulter, Hialeah, Fla.). […] Fluorescence intensity of TUNEL and APO 2.7 staining was determined using on EPICS XL flow cytometer. Cytotoxicity was determined by trypan blue exclusion assay. […] Cell growth and induction of apoptosis were determined both by colorimetric assay and now cytometric detection of APO2.7 after 48 h treatment. […] Proliferation of MM cells was then assessed by [^3H]-thymidine uptake. […] DNA synthesis was measured by [^3H]-thymidine uptake. […] Angiogenesis assay: The anti-angiogenic effect of HNK was determined using an In Vitro Angiogenesis Assay Kit (Chemicon, Temecula, Calif.). […] After 6 h, tube formation by endothelial cells was evaluated. […]
# RPM18226 cells = assay: TUNEL assay; assay type: cell-based, human; settings: RPM18226, 10 ug/ml, 48 h
# Experimental: as §1
# [1] = test system: AKT, p44/42 MAPK, and Src phosphorylation in SVR cells; assay: Western blotting of phosphorylated intracellular proteins; assay type: cell-based
# Source text: FIG. 14 depicts the effects of honokiol on the phosphorylation of various intracellular proteins. […] Cells were lysed and analyzed by Western blotting using antibodies specific for the phosphorylated (P-AKT, P-MAPK, and P-Src) or unphosphorylated forms of AKT and MAPK. […] Cells were lysed and analyzed by Western blotting using antibodies specific for the phosphorylated (P-Akt, P-MAPK, and P-Src) or unphosphorylated forms of Akt and MAPK.
structure (smiles),measurement,setting,value
"C=CCc1ccc(O)c(-c2ccc(O)c(CC=C)c2)c1 [HNK, Honokiol]",in vivo growth of SVR angiosarcoma,SVR angiosarcoma,effective against tumors in vivo
same,toxicity to the host animal,SVR angiosarcoma,nontoxic to the host animal
same,TUNEL positive cells,MM.1S cells,38.2%
same,TUNEL positive cells,RPM18226 cells,41.5%
same,"phosphorylation of Akt, p44/42 MAPK, Src at low concentrations","[1]; 2.7, 6.7 or 13.3 μg/ml, 2, 6 or 24 h",inhibits phosphorylation of Akt at low concentrations but not p44/42 MAPK or Src
same,"phosphorylation of AKT, p44/42 MAPK, and Src","[1]; 20, 30, 40 or 45 μg/ml, 1 h","inhibits phosphorylation of AKT, p44/42 MAPK, and Src"
